Results published in PubChem BioAssay (NCI).
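Dose response: 5 concentrations. Exposure: 48 h. Format: 96-well plates. Endpoint: linear interpolation; highest concentration if not reached. GI50 marks 50% less growth. At the TGI there is no net growth.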

Assays:
Assay in all cases: inhibition of tumour cell growth, NCI panel, 48 h
IGROV1 ovarian = system: IGROV1 ovarian
CCRF-CEM leukemia = system: CCRF-CEM leukemia
SR leukemia = system: SR leukemia
SF-268 CNS = system: SF-268 CNS
SK-MEL-28 melanoma = system: SK-MEL-28 melanoma
A498 renal = system: A498 renal
UACC-62 melanoma = system: UACC-62 melanoma
MDA-MB-231 breast = system: MDA-MB-231 breast
RXF 393 renal = system: RXF 393 renal
OVCAR-4 ovarian = system: OVCAR-4 ovarian
TK-10 renal = system: TK-10 renal
SNB-19 CNS = system: SNB-19 CNS
ACHN renal = system: ACHN renal
MDA-MB-468 breast = system: MDA-MB-468 breast
OVCAR-5 ovarian = system: OVCAR-5 ovarian
SN12C renal = system: SN12C renal
K-562 leukemia = system: K-562 leukemia
HOP-92 NSCLC = system: HOP-92 NSCLC
A549 NSCLC = system: A549 NSCLC
SK-OV-3 ovarian = system: SK-OV-3 ovarian
LOX IMVI melanoma = system: LOX IMVI melanoma
SNB-75 CNS = system: SNB-75 CNS
MOLT-4 leukemia = system: MOLT-4 leukemia
HCC-2998 colon = system: HCC-2998 colon
CAKI-1 renal = system: CAKI-1 renal
SF-539 CNS = system: SF-539 CNS
MCF7 breast = system: MCF7 breast
EKVX NSCLC = system: EKVX NSCLC
HS 578T breast = system: HS 578T breast
SK-MEL-5 melanoma = system: SK-MEL-5 melanoma
SF-295 CNS = system: SF-295 CNS
NCI-H226 lung = system: NCI-H226 lung
HL-60(TB) leukemia = system: HL-60(TB) leukemia
NCI-H23 lung = system: NCI-H23 lung
HOP-62 NSCLC = system: HOP-62 NSCLC
HCT-15 colon = system: HCT-15 colon
KM12 colon = system: KM12 colon
UO-31 renal = system: UO-31 renal
PC-3 prostate = system: PC-3 prostate
NCI-H460 lung = system: NCI-H460 lung
NCI-H522 lung = system: NCI-H522 lung
SW-620 colon = system: SW-620 colon
MALME-3M melanoma = system: MALME-3M melanoma
T-47D breast = system: T-47D breast
SK-MEL-2 melanoma = system: SK-MEL-2 melanoma
786-0 renal = system: 786-0 renal
UACC-257 melanoma = system: UACC-257 melanoma
M14 melanoma = system: M14 melanoma
HCT-116 colon = system: HCT-116 colon
HT29 colon = system: HT29 colon
COLO 205 colon = system: COLO 205 colon
MDA-MB-435 = system: MDA-MB-435
OVCAR-3 ovarian = system: OVCAR-3 ovarian
RPMI-8226 leukemia = system: RPMI-8226 leukemia
DU-145 prostate = system: DU-145 prostate
U251 CNS = system: U251 CNS
BT-549 breast = system: BT-549 breast

## CSc1ccc(C(=O)Nc2ccc3nnn(/C(C#N)=C/c4ccccn4)c3c2)cc1
IGROV1 ovarian
  GI50: 1.91 µM
  TGI: 3.8 µM
CCRF-CEM leukemia
  GI50: 2.1 µM
  TGI: > 100 µM
SR leukemia
  GI50: 2750 nM
  TGI: > 100 µM
SF-268 CNS
  GI50: 4.16 µM
  TGI: 45.3 µM
SK-MEL-28 melanoma
  GI50: 1680 nM
  TGI: 3.11 µM
A498 renal
  GI50: 13.2 µM
  TGI: 53.3 µM
UACC-62 melanoma
  GI50: 1680 nM
  TGI: 3.35 µM
MDA-MB-231 breast
  GI50: 1760 nM
  TGI: 3.23 µM
RXF 393 renal
  GI50: 1500 nM
  TGI: 2.84 µM
OVCAR-4 ovarian
  GI50: 4.53 µM
  TGI: > 100 µM
TK-10 renal
  GI50: 1660 nM
  TGI: 3.11 µM
SNB-19 CNS
  GI50: 3140 nM
  TGI: 12.1 µM
ACHN renal
  GI50: 1740 nM
  TGI: 3.11 µM
MDA-MB-468 breast
  GI50: 1310 nM
  TGI: 2.91 µM
OVCAR-5 ovarian
  GI50: 1.75 µM
  TGI: 3.19 µM
SN12C renal
  GI50: 2.13 µM
  TGI: 4.97 µM
K-562 leukemia
  GI50: 2.53 µM
  TGI: > 100 µM
HOP-92 NSCLC
  GI50: 1790 nM
  TGI: 4.62 µM
A549 NSCLC
  GI50: 3.46 µM
  TGI: > 100 µM
SK-OV-3 ovarian
  GI50: 24.5 µM
  TGI: > 100 µM
LOX IMVI melanoma
  GI50: 1520 nM
  TGI: 2.92 µM
SNB-75 CNS
  GI50: 3.97 µM
  TGI: 25.4 µM
MOLT-4 leukemia
  GI50: 3.57 µM
  TGI: > 100 µM
HCC-2998 colon
  GI50: 1.79 µM
  TGI: 3.26 µM
CAKI-1 renal
  GI50: 1330 nM
  TGI: 2.65 µM
SF-539 CNS
  GI50: 1660 nM
  TGI: 3.05 µM
MCF7 breast
  GI50: 1.28 µM
  TGI: 2720 nM
EKVX NSCLC
  GI50: 2150 nM
  TGI: 4.89 µM
HS 578T breast
  GI50: 2510 nM
  TGI: 7.12 µM
SK-MEL-5 melanoma
  GI50: 2010 nM
  TGI: 4.79 µM
SF-295 CNS
  GI50: 6.89 µM
  TGI: 21.4 µM
NCI-H226 lung
  GI50: 3.76 µM
  TGI: 26.9 µM
HL-60(TB) leukemia
  GI50: 2670 nM
  TGI: > 100 µM
NCI-H23 lung
  GI50: 1780 nM
  TGI: 3.5 µM
HOP-62 NSCLC
  GI50: 3110 nM
  TGI: 12.6 µM
HCT-15 colon
  GI50: 1660 nM
  TGI: 3.53 µM
KM12 colon
  GI50: 1940 nM
  TGI: 4.65 µM
UO-31 renal
  GI50: 1370 nM
  TGI: 2650 nM
PC-3 prostate
  GI50: 2740 nM
  TGI: 7.14 µM
NCI-H460 lung
  GI50: 2200 nM
  TGI: 4.35 µM

## CNC(=O)c1cc(Oc2ccc3nc(NC(=O)Nc4cccc(OC(F)(F)F)c4)sc3c2)ccn1
NCI-H522 lung
  GI50: 3.5 µM
  TGI: > 100 µM
IGROV1 ovarian
  GI50: 4.65 µM
  TGI: 21.6 µM
SW-620 colon
  GI50: 4.94 µM
  TGI: > 100 µM
CCRF-CEM leukemia
  GI50: 9.07 µM
  TGI: > 100 µM
SR leukemia
  GI50: > 100000 nM
  TGI: > 100 µM
SF-268 CNS
  GI50: 4.3 µM
  TGI: 89 µM
SK-MEL-28 melanoma
  GI50: 2660 nM
  TGI: > 100 µM
MALME-3M melanoma
  GI50: 1820 nM
  TGI: 5.3 µM
A498 renal
  GI50: 4.25 µM
  TGI: 9.77 µM
UACC-62 melanoma
  GI50: 2070 nM
  TGI: 13.3 µM
T-47D breast
  GI50: 5.08 µM
  TGI: > 100 µM
MDA-MB-231 breast
  GI50: 2370 nM
  TGI: 10.9 µM
RXF 393 renal
  GI50: 1910 nM
  TGI: 4.82 µM
SK-MEL-2 melanoma
  GI50: 2510 nM
  TGI: 8.12 µM
OVCAR-4 ovarian
  GI50: 2.97 µM
  TGI: 9.23 µM
TK-10 renal
  GI50: 4090 nM
  TGI: 13.2 µM
SNB-19 CNS
  GI50: 2220 nM
  TGI: 5.55 µM
786-0 renal
  GI50: 2710 nM
  TGI: 7.41 µM
ACHN renal
  GI50: 2320 nM
  TGI: 7.26 µM
MDA-MB-468 breast
  GI50: 2160 nM
  TGI: 13.5 µM
OVCAR-5 ovarian
  GI50: 5.58 µM
  TGI: > 100 µM
UACC-257 melanoma
  GI50: 5.89 µM
  TGI: > 100 µM
SN12C renal
  GI50: 5.11 µM
  TGI: > 100 µM
K-562 leukemia
  GI50: 5.51 µM
  TGI: > 100 µM
HOP-92 NSCLC
  GI50: 1660 nM
  TGI: 4.46 µM
A549 NSCLC
  GI50: 2.69 µM
  TGI: > 100 µM
SK-OV-3 ovarian
  GI50: 3 µM
  TGI: 6.83 µM
M14 melanoma
  GI50: 5.76 µM
  TGI: > 100 µM
LOX IMVI melanoma
  GI50: 4150 nM
  TGI: 23.6 µM
HCT-116 colon
  GI50: 4.67 µM
  TGI: > 100 µM
SNB-75 CNS
  GI50: 2.34 µM
  TGI: 5.52 µM
MOLT-4 leukemia
  GI50: > 100 µM
  TGI: > 100 µM
HT29 colon
  GI50: 7.9 µM
  TGI: > 100 µM
HCC-2998 colon
  GI50: 8.69 µM
  TGI: > 100 µM
CAKI-1 renal
  GI50: 2010 nM
  TGI: 4.72 µM
SF-539 CNS
  GI50: 3070 nM
  TGI: 10.2 µM
COLO 205 colon
  GI50: 5.43 µM
  TGI: > 100 µM
MCF7 breast
  GI50: 8.31 µM
  TGI: > 100000 nM
EKVX NSCLC
  GI50: 3560 nM
  TGI: > 100 µM
MDA-MB-435
  GI50: 4.27 µM
  TGI: > 100 µM
HS 578T breast
  GI50: 2290 nM
  TGI: 7.09 µM
OVCAR-3 ovarian
  GI50: 3.27 µM
  TGI: > 100 µM
SK-MEL-5 melanoma
  GI50: 3080 nM
  TGI: > 100 µM
SF-295 CNS
  GI50: 1.7 µM
  TGI: 4.17 µM
RPMI-8226 leukemia
  GI50: > 100 µM
  TGI: > 100 µM
DU-145 prostate
  GI50: 3.64 µM
  TGI: > 100 µM
NCI-H226 lung
  GI50: 2.56 µM
  TGI: 6.14 µM
HL-60(TB) leukemia
  GI50: > 100000 nM
  TGI: > 100 µM
NCI-H23 lung
  GI50: 2910 nM
  TGI: 11.9 µM
U251 CNS
  GI50: 2430 nM
  TGI: 6.27 µM
HOP-62 NSCLC
  GI50: 1720 nM
  TGI: 3.47 µM
HCT-15 colon
  GI50: 4070 nM
  TGI: > 100 µM
BT-549 breast
  GI50: 3.21 µM
  TGI: 9.02 µM
KM12 colon
  GI50: 809 nM
  TGI: > 100 µM
UO-31 renal
  GI50: 3930 nM
  TGI: > 100000 nM
PC-3 prostate
  GI50: 2220 nM
  TGI: > 100 µM
NCI-H460 lung
  GI50: 2580 nM
  TGI: > 100 µM
